Test results as given in EP2695874A1, “Myrtucommulone analogues” (Universität des Saarlandes, priority 2012, dated 2014).

Columns and labels:
[1] = molecular target: T1, 5-LO (Homo sapiens, UniProt P09917); test: 5-LO product formation of purified 5-LO enzyme (cell-free assay); format: biochemical; conditions: 10 µM AA, 2 mM CaCl2, read-out: 5-LO cell-free assay (IC50 in µmol l^-1)
T1 sequence (P09917 1-674): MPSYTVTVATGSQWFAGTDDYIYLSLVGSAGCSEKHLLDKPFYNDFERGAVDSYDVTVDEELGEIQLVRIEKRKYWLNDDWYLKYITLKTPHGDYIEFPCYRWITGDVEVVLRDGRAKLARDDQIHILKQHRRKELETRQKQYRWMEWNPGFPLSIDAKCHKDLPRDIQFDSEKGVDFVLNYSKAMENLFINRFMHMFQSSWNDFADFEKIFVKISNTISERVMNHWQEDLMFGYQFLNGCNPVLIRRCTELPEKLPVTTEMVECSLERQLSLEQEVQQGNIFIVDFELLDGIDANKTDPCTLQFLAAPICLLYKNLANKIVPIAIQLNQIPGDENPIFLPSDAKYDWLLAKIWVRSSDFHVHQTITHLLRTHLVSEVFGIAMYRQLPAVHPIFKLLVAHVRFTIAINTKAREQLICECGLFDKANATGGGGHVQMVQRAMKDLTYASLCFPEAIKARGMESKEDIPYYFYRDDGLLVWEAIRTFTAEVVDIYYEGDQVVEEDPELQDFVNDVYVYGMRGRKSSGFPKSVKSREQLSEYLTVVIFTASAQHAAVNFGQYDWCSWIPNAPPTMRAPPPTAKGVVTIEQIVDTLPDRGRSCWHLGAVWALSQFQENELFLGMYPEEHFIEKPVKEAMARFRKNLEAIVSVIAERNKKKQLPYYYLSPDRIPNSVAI
Protocol: (§1) To assay 5- and 15-lipoxygease (LO) product formation in intact cells, 7.5 x 10^6 freshly isolated PMNLs were finally resuspended in 1 ml of PGC buffer. After preincubation with the test compounds for 10 min at 37°C, the reaction was started by the addition of 1 µM ionomycin plus 20 µM AA. After 10 min at 37°C, the reaction was stopped with 1 ml of methanol and 30 µl of 1 N HCl, and 200 ng of prostaglandin B1 and 500 µl of PBS were added. Formed AA metabolites were extracted and analyzed by HPLC. To determine product formation of purified 5-LO enzyme, 5-LO protein (0.1 µg in 10 µl) was added to 990 µl of PBS containing 1 mM EDTA and 1 mM ATP on ice and the indicated compounds were added. After 5 to 10 min on ice, the samples were preincubated for 30 s at 37°C and CaCl2 and AA (2 mM and 10 µM, respectively) were added to start the 5-LO reaction. After 10 min, the incubation was terminated and 5-LO product formation was determined as described for the intact cells.

[2] = molecular target: T1, 5-LO; test: 5-LO product formation in intact PMNLs (cell-based assay); conditions: 1 µM ionomycin plus 20 µM AA, read-out: 5-LO cell-based assay (IC50 in µmol l^-1)
Protocol: as §1

[3] = test system: Cell lines; test: Determination of cell viability by MTT assay (apoptose induction); format: cell-based; conditions: cell line not given, read-out: Apoptose induction (EC50 in µmol l^-1)
Protocol: Example 11 - Determination of cell viability by MTT assay
(I. Tretiakova, D. Blaesius, L. Maxia, S. Wesselborg, K. Schulze-Osthoff, J CinatlJr., M. Michaelis, O. Werz, Apoptosis 2008, 13, 119-131.)
Cell viability was assessed using the MTT assay. Cell lines were incubated at 37°C and 5% CO2 atmosphere with the indicated additives for 5 days. PBMC were treated for 40 h and in some experiments, MM6 cells were only treated for 24 h. DMSO was used as solvent never exceeding 0.5% (vol/vol). Then, MTT reagent was added for 4 h. Thereafter, 100 II SDS solution (20% SDS in a 1:1 (vol by vol) dimethylformamide/ water solution) was added for 4 h. Plates were read on a multiwell scanning spectrophotometer (Victor3 plate reader, PerkinElmer, Rodgau-Juegesheim, Germany) at a wavelength of 620 nm and a reference wavelength of 690 nm. Induction of cell death was determined as the relative reduction of the optical density.

[4] = molecular target: T2, mPGES-1 (Homo sapiens, UniProt O14684); test: Determination of PGE2 synthase activity in microsomes of A549 cells; format: biochemical; conditions: PGH2 substrate, 15 min preincubation at 4°C, read-out: mPGES-1 (IC50 in µmol l^-1)
T2 construct: Determination of PGE2 synthase activity in microsomes of A549 cells; endogenous in cells; host or cells: A549 cells (microsomal membranes)
T2 sequence (O14684 1-152): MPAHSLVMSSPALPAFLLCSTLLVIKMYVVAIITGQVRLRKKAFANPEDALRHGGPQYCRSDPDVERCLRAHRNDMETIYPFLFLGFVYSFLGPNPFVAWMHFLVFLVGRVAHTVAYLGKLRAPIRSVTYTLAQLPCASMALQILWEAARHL
Protocol: Example 9 - Determination of PGE2 synthase activity in microsomes of A549 cells
(A. Koeberle, F. Pollastro, H. Northoff and O. Werz, Br. J. Pharmacol. 2009, 156, 952-961.)
Microsomal membranes were diluted in potassium phosphate buffer (0.1 mol·1^-1, pH 7.4) containing 2.5 mmol·l^-1 glutathione.
Test compounds or vehicle were added, and after 15 min at 4°C the reaction ([…]) was initiated by addition of PGH2 ([…], final concentration). After 1 min at 4°C, the reaction was terminated by using stop solution (100 ml; 40 mmol·l^-1 FeCl2, 80 mmol·l^-1 citric acid and 10 mmol·l^-1 of 11b-PGE2). PGE2 was separated by solid phase extraction on reversed phase (RP)-C18 material by using acetonitrile (200 ml) as eluent, and analysed by RP-HPLC (30% acetonitrile in water + 0.007% TFA (v,v), Nova-Pak® C18 column, 5 x 100 mm, 4 mm particle size, flow rate 1 m-·min^-1) with UV detection at 195 nm. 11b-PGE2 was used as internal standard to quantify PGE2 product formation by integration of the area under the peaks.

Structure (SMILES) | IC50 [1] | IC50 [2] | EC50 [3] | IC50 [4]
CC(C)CC(=O)c1c(O)c(C(C2=C(O)c3ccccc3C2=O)C(C)C)c(O)c(C(C2=C(O)c3ccccc3C2=O)C(C)C)c1O (centres unmarked) [Compound (Ic), 2,2'-(1,1'-(2,4,6-Trihydroxy-5-(3-methylbutanoyl)-1,3-phenylene)bis(2-methylpropane-1,1-diyl))bis(3-hydroxy-1H-inden-1-one)] | 300 nM | 1040 nM | > 30000 nM | 180 nM
O=C1C(C(c2ccccc2)c2c(O)c(C(=O)c3ccccc3)c(O)c(C(C3=C(O)c4ccccc4C3=O)c3ccccc3)c2O)=C(O)c2ccccc21 (racemic) [(Ih), 2,2'-(5-Benzoyl-2,4,6-trihydroxy-1,3-phenylene)bis(phenylmethylene)bis(3-hydroxy-1H-inden-1-one)] | 2990 nM | 840 nM | > 30000 nM | 330 nM
CC(C)C(=O)c1c(O)c(C(C2=C(O)c3ccccc3C2=O)C(C)C)c(O)c(C(C2=C(O)c3ccccc3C2=O)C(C)C)c1O (centres unmarked) [Compound (Ia), 2,2'-(1,1'-(2,4,6-Trihydroxy-5-isobutyryl-1,3-phenylene)bis(2-methylpropane-1,1-diyl))bis(3-hydroxy-1H-inden-1-one)] | 2800 nM | 6700 nM | > 30000 nM | 300 nM
CCCCCC(=O)c1c(O)c(C(C2=C(O)c3ccccc3C2=O)C(C)C)c(O)c(C(C2=C(O)c3ccccc3C2=O)C(C)C)c1O (centres unmarked) [Compound (Ib), 2,2'-(1,1'-(5-Hexanoyl-2,4,6-trihydroxy-1,3-phenylene)bis(2-methylpropane-1,1-diyl))bis(3-hydroxy-1H-inden-1-one)] | 1740 nM | 1460 nM | > 30000 nM | 80 nM
CC(C)C(=O)c1c(O)c(C(C2=C(O)c3ccccc3C2=O)c2ccccc2)c(O)c(C(C2=C(O)c3ccccc3C2=O)c2ccccc2)c1O (racemic) [Compound (Ie), 2,2'-(2,4,6-Trihydroxy-5-isobutyryl-1,3-phenylene)bis(phenylmethylene)bis(3-hydroxy-1H-inden-1-one)] | 730 nM | 620 nM | > 30000 nM | 550 nM
CC(C)C(C1=C(O)c2ccccc2C1=O)c1c(O)c(C(=O)c2ccccc2)c(O)c(C(C2=C(O)c3ccccc3C2=O)C(C)C)c1O (centres unmarked) [Compound (Id), 2,2'-(1,1'-(5-Benzoyl-2,4,6-trihydroxy-1,3-phenylene)bis(2-methylpropane-1,1-diyl))bis(3-hydroxy-1H-inden-1-one)] | 6860 nM | 3230 nM | > 30000 nM | 680 nM
CC(C)CC(=O)c1c(O)c(C(C2=C(O)c3ccccc3C2=O)c2ccccc2)c(O)c(C(C2=C(O)c3ccccc3C2=O)c2ccccc2)c1O (racemic) [(If), 2,2'-(2,4,6-Trihydroxy-5-(3-methylbutanoyl)-1,3-phenylene)bis(phenylmethylene)bis(3-hydroxy-1H-inden-1-one)] | 460 nM | 690 nM | > 30000 nM | 190 nM
CCCCCC(=O)c1c(O)c(C(C2=C(O)c3ccccc3C2=O)c2ccccc2)c(O)c(C(C2=C(O)c3ccccc3C2=O)c2ccccc2)c1O (racemic) [Compound (Ig), 2,2'-(5-Hexanoyl-2,4,6-trihydroxy-1,3-phenylene)bis(phenylmethylene)bis(3-hydroxy-1H-inden-1-one)] | 1100 nM | 2090 nM | > 30000 nM | 390 nM
